For one test, the system named is Pituitary cells. Description: Pituitary Cell Culture Assay for Growth Hormone Secretion. The test is classed as cell-based, rat (male Sprague-Dawley). The note with it: 0.25 h, read-out: GH secretion EC50; heading: GH secretion EC50; rat anterior pituitary cells, 15 min at 37° C.; Examples Part 1. From the text:
Thirty-two 250 g male Sprague-Dawley rats were used for each assay. The animals were killed by decapitation and anterior pituitaries were removed and placed into ice cold culture medium. The pituitaries were sectioned into eighths and enzymatically digested using trypsin (Sigma Chemical) to weaken connective tissue. Pituitary cells were dispersed by mechanical agitation, collected, pooled and then seeded into 24-well plates (300,000 cells/well). After 4 days of culture, the cells formed an even monolayer. Cells were then washed with medium and challenged to secrete GH by the addition of GH secretagogues to the medium. After 15 min at 37° C., the medium was removed and stored frozen until radioimmunoassays for rat GH were performed. Doses of secretagogue were added in quadruplicate. Compounds disclosed herein are active in the assay as described. Both EC50 and efficacy values were calculated by the 4-parameter logistic equation. Such values were pooled and represented as mean +/- standard error, when appropriate.

Another test deals with heart failure. The note with it: cited from earlier work.

As for `COC(=O)[C@@H]1CCCN1C(=O)C(c1ccccc1)n1cnc(NC(=O)[C@@H](COCc2ccccc2)NC(=O)C(C)(C)N)c1` (stereo partly drawn) [Example 6], in the test with Pituitary cells, the EC50 – broadly, the concentration needed to bring the measured effect to its halfway point – turned out to be 5.53 µM.

As to `COc1ccccc1OCCNCC(O)COc1cccc2[nH]c3ccccc3c12` (stereo not drawn) [Carvedilol], the mortality in patients entry in the test on heart failure is reported as “dramatic reductions in mortality in patients”.

For `COC(=O)[C@@H]1CCCN1C(=O)C(c1ccccc1)n1cnc(NC(=O)[C@H](COCc2ccccc2)NC(=O)C(C)(C)N)c1` (stereo partly drawn) [Example 8], in the test on Pituitary cells, the EC50 came to 2.39 µM.

The record behind these values is patent US6329342A, “Treatment of congestive heart failure with growth hormone secretagogues” (Eli Lilly and Company, priority 2000, dated 2001).
